Results: US6761904B2 (Nycomed Austria GmbH, priority 2000, dated 2004)

Tests used:
[1] = Plasma pharmacokinetics of midodrine and desglymidodrine after oral intake / colon absorption (general findings and presumptions); type: in vivo, human; settings: for Cmax: 7.5 mg, presumption made in estimating the target profile, obtained after tablet administration
[2] = after oral administration of a single dose; cited from earlier work

| Compound | tmax of desglymidodrine after colon absorption ([1]; after application to the colon) | Cmax ([1]; human, in vivo) [ng/mL] | Tmax ([1]; human, in vivo, po) [h] | persistence of the pressor effect [2] [h] | time until the pressor effect is manifest [2] [min] | Cmax ([1]; human, plasma, oral) [ng/mL] | tmax after oral intake of midodrine ([1]; midodrine itself in plasma) |
| --- | --- | --- | --- | --- | --- | --- | --- |
| COc1ccc(OC)c(C(O)CN)c1 (stereo not drawn) [desglymidodrine, alpha-(aminomethyl)-2,5-dimethoxy-benzenemethanol] | approximately 3 hours | ~3.75 | 1 to 2 |  |  |  |  |
| COc1ccc(OC)c(C(O)CNC(=O)CN)c1 (stereo not shown) [midodrine, 2-amino-N-[2-(2,5-dimethoxyphenyl)-2-hydroxyethyl]-acetamide] |  |  |  | 3 to 6 | 20 to 90 | ~11 | about 30 min |
